From patent US9199962B2, “Substituted azaheterocycles for the treatment of cancer” (Merck Patent GmbH, priority 2011, dated 2015)

The compounds below were run against T1, GST-FAK (N-terminal GST fusion with truncated human FAK (376-1052 (end) amino acids)) (Homo sapiens, UniProt Q05397) (assay: Biochemical enzyme assay for FAK activity (Caliper LC3000 mobility shift)). Settings: Table 1; 100 uM ATP; read-out: FAK IC50.
T1 construct: truncated human FAK (376-1052 (end) amino acids)
Experimental: 1. Biochemical Enzyme Assays for FAK Activity
The FAK assays described here are performed on two Caliper Life Sciences systems, the LC3000 and the EZ Reader II. These provide data on enzyme activity via measurement of the relative amounts of phosphorylated or unphosphorylated fluorescently labelled substrate peptide at the end of an enzymatic reaction. These different states of peptide are resolved by applying a potential difference across the sample. The presence of the charged phosphate group on the product (as opposed to the substrate) causes different peptide mobility between the two peptides. This is visualized by excitation of the fluorescent label on the substrate and product peptides and represented as peaks within the analysis software.
In order to measure inhibitor activity of FAK, inhibitors in the Caliper Life Sciences LC3000, a TTP Mosquito liquid handling instrument is used to place 0.25 ul of the appropriate concentration of inhibitor in 100% DMSO (for a dose response curve calculation) into each well of a 384-well plate. To this reaction components are added to a final volume of 25 ul: • 0.067 ng/ul GST-FAK (N-terminal GST fusion with truncated human FAK (376-1052 (end) amino acids)) • 100 uM ATP • 1 mM DTT • 1 mM MgCl2 • 1 uM substrate peptide (sequence FITC-KGWMEDYDYVHLQGKK-(CONH2)SEQ ID NO: 1)) • 1 mM FERM peptide (sequence NH2-GATQSFIIR-COOH (SEQ ID NO: 2)) • 100 mM HEPES pH 7.5 • 0.015% Brij-35
The reaction is incubated for 90 min at 25 C, and then stopped by the addition of 70 ul of Stop buffer (100 mM HEPES pH 7.5, 0.015% Brij-35, 10 mM EDTA).
The plate is read on a Caliper LC 3000 in an Off-Chip mobility shift assay format, using the following parameters for a 12-sipper chip: screening pressure—1.9 psi, upstream voltage—3000, downstream voltage—700. These conditions cause unphosphorylated substrate and phosphorylated product peptide to resolve as separate peaks allowing direct measurement of percentage of conversion of substrate to product. The percent conversion can be plotted against concentration of inhibitor to produce a sigmoid dose response curve, from which an IC50 can be calculated using XLFit for Microsoft Excel.

T1 sequence (Q05397 376-1052): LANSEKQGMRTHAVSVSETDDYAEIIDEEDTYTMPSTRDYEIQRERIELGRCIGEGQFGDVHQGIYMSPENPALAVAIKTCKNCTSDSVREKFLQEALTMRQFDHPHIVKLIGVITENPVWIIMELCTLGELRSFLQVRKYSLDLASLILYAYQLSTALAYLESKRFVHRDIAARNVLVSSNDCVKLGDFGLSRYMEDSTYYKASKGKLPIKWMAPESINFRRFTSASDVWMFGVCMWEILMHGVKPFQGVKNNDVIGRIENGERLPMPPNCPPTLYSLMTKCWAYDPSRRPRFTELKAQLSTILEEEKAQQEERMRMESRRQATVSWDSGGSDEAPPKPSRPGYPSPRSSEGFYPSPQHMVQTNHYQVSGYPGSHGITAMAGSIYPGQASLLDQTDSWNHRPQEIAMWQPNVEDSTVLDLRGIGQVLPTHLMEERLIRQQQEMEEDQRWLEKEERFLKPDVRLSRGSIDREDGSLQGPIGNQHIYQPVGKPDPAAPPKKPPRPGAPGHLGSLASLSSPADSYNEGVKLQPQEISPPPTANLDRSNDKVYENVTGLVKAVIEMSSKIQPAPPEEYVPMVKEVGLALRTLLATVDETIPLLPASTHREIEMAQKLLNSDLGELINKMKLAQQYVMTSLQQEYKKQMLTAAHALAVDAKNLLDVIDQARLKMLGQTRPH

IC50 [nM] | SMILES
> 10000 | Fc1ccc(Oc2ccc(CNc3ccnc(-c4cncc(Cl)c4)n3)cc2)cc1 [Compound 31, [2-(5-Chloro-pyridin-3-yl)-pyrimidin-4-yl]-[4-(4-fluoro-phenoxy)-benzyl]-amine]
< 100 | Fc1cc(Cl)ccc1CNc1ccnc(-c2cncc(Cl)c2)n1 [Compound 32, (4-Chloro-2-fluoro-benzyl)-[2-(5-chloro-pyridin-3-yl)-pyrimidin-4-yl]-amine]
< 100 | Fc1cncc(-c2nccc(NCc3ccc(Cl)cc3F)n2)c1 [Compound 33, (4-Chloro-2-fluoro-benzyl)-[2-(5-fluoro-pyridin-3-yl)-pyrimidin-4-yl]-amine]
> 10000 | O=C(c1cncc(-c2nccc(NCc3cccc(-n4cccn4)c3)n2)c1)N1CCOCC1 [Compound 34, Morpholin-4-yl-{5-[4-(3-pyrazol-1-yl-benzylamino)-pyrimidin-2-yl]-pyridin-3-yl}-methanone]
< 100 | Fc1cc(Cl)ccc1CNc1ccnc(-c2cncc(C(F)(F)F)c2)n1 [Compound 35, (4-Chloro-2-fluoro-benzyl)-[2-(5-trifluoromethyl-pyridin-3-yl)-pyrimidin-4-yl]-amine]
1000 to 10000 | Clc1cncc(-c2nccc(NCC3CC3)n2)c1 [Compound 36, [2-(5-Chloro-pyridin-3-yl)-pyrimidin-4-yl]-cyclopropylmethyl-amine]
1000 to 10000 | Clc1cncc(-c2nccc(NCC3CCCCC3)n2)c1 [Compound 37, [2-(5-Chloro-pyridin-3-yl)-pyrimidin-4-yl]-cyclohexylmethyl-amine]
< 100 | Fc1ccccc1CNc1ccnc(-c2cncc(Cl)c2)n1 [Compound 38, [2-(5-Chloro-pyridin-3-yl)-pyrimidin-4-yl]-(2-fluoro-benzyl)-amine]
100 to 1000 | Fc1ccc(CNc2ccnc(-c3cncc(Cl)c3)n2)cc1 [Compound 39, [2-(5-Chloro-pyridin-3-yl)-pyrimidin-4-yl]-(4-fluoro-benzyl)-amine]
> 10000 | CC1(C)Cc2cccc(CNc3ccnc(-c4cncc(C(=O)N5CCOCC5)c4)n3)c2O1 [Compound 40, (5-{4-[(2,2-Dimethyl-2,3-dihydro-benzofuran-7-ylmethyl)-amino]-pyrimidin-2-yl}-pyridin-3-yl)-morpholin-4-yl-methanone]

Same assay, conditions: Table 2; 100 uM ATP; read-out: FAK IC50

IC50 [nM] | SMILES
< 100 | CC(=O)NCCNC(=O)c1cc(NCc2ccc(F)cc2F)nc(-c2cncc(C(F)(F)F)c2)n1 [Compound 69, 6-(2,4-Difluoro-benzylamino)-2-(5-trifluoromethyl-pyridin-3-yl)-pyrimidine-4-carboxylic acid (2-acetylamino-ethyl)-amide]
< 100 | O=C(NCCc1cccnc1)c1cc(NCc2ccc(F)cc2F)nc(-c2cncc(C(F)(F)F)c2)n1 [Compound 70, 6-(2,4-Difluoro-benzylamino)-2-(5-trifluoromethyl-pyridin-3-yl)-pyrimidine-4-carboxylic acid (2-pyridin-3-yl-ethyl)-amide]
< 100 | O=C(NCCn1cccn1)c1cc(NCc2ccc(F)cc2F)nc(-c2cncc(C(F)(F)F)c2)n1 [Compound 71, 6-(2,4-Difluoro-benzylamino)-2-(5-trifluoromethyl-pyridin-3-yl)-pyrimidine-4-carboxylic acid (2-pyrazol-1-yl-ethyl)-amide]
100 to 1000 | Cc1nc(CCNC(=O)c2cc(NCc3ccc(F)cc3F)nc(-c3cncc(C(F)(F)F)c3)n2)cs1 [Compound 73, 6-(2,4-Difluoro-benzylamino)-2-(5-trifluoromethyl-pyridin-3-yl)-pyrimidine-4-carboxylic acid [2-(2-methyl-thiazol-4-yl)-ethyl]-amide]
100 to 1000 | CCc1noc(CCNC(=O)c2cc(NCc3ccc(F)cc3F)nc(-c3cncc(C(F)(F)F)c3)n2)n1 [Compound 74, 6-(2,4-Difluoro-benzylamino)-2-(5-trifluoromethyl-pyridin-3-yl)-pyrimidine-4-carboxylic acid [2-(3-ethyl-[1,2,4]oxadiazol-5-yl)-ethyl]-amide]
100 to 1000 | O=C(NCCN1CCNC1=O)c1cc(NCc2ccc(F)cc2F)nc(-c2cncc(C(F)(F)F)c2)n1 [Compound 75, 6-(2,4-Difluoro-benzylamino)-2-(5-trifluoromethyl-pyridin-3-yl)-pyrimidine-4-carboxylic acid [2-(2-oxo-imidazolidin-1-yl)-ethyl]-amide]
100 to 1000 | CNC(=O)[C@H](NC(=O)c1cc(NCc2ccc(F)cc2F)nc(-c2cncc(C(F)(F)F)c2)n1)C(C)C [Compound 76, 6-(2,4-Difluoro-benzylamino)-2-(5-trifluoromethyl-pyridin-3-yl)-pyrimidine-4-carboxylic acid ((R)-2-methyl-1-methylcarbamoyl-propyl)-amide]

Further lines, the compound ahead of its results:

SMILES | IC50 [nM]
NC(=O)CCNc1cc(NCc2ccc(F)cc2F)nc(-c2cncc(C(F)(F)F)c2)n1 [Compound 61, 3-[6-(2,4-Difluoro-benzylamino)-2-(5-trifluoromethyl-pyridin-3-yl)-pyrimidin-4-ylamino]-propionamide] | 100 to 1000
Fc1ccc(CNc2cc(NC3CCNCC3)nc(-c3cncc(C(F)(F)F)c3)n2)c(F)c1 [Compound 66, N-(2,4-Difluoro-benzyl)-N′-piperidin-4-yl-2-(5-trifluoromethyl-pyridin-3-yl)-pyrimidine-4,6-diamine] | 100 to 1000
OCC(Nc1ccnc(-c2cncc(C(F)(F)F)c2)n1)c1ccccc1 (centres unmarked) [Compound 67, 2-Phenyl-2-[2-(5-trifluoromethyl-pyridin-3-yl)-pyrimidin-4-ylamino]-ethanol] | 100 to 1000
CC(Nc1ccnc(-c2cncc(C(F)(F)F)c2)n1)c1ccc(F)cc1 (centres unmarked) [Compound 68, [1-(4-Fluoro-phenyl)-ethyl]-[2-(5-trifluoromethyl-pyridin-3-yl)-pyrimidin-4-yl]-amine] | 100 to 1000

Same assay, conditions: Table 3; 100 uM ATP; read-out: FAK IC50

IC50 [nM] | SMILES
100 to 1000 | Nc1ncccc1-c1nccc(NCc2ccccc2F)n1 [Compound 78, 2-(2-Aminopyridin-3-yl)-N-(2-fluorobenzyl)pyrimidin-4-amine]
> 10000 | Nc1ncccc1-c1nccc(NCc2cccc(F)c2)n1 [Compound 79, 2-(2-Aminopyridin-3-yl)-N-(3-fluorobenzyl)pyrimidin-4-amine]
1000 to 10000 | Nc1ncccc1-c1nccc(NCc2ccc(F)cc2)n1 [Compound 80, 2-(2-Aminopyridin-3-yl)-N-(4-fluorobenzyl)pyrimidin-4-amine]
1000 to 10000 | Nc1ncccc1-c1nccc(NCc2ccccc2)n1 [Compound 81, 2-(2-Aminopyridin-3-yl)-N-benzylpyrimidin-4-amine]
1000 to 10000 | Cc1ccccc1CNc1ccnc(-c2cccnc2N)n1 [Compound 82, 2-(2-Aminopyridin-3-yl)-N-(2-methylbenzyl)pyrimidin-4-amine]
1000 to 10000 | COc1ccccc1CNc1ccnc(-c2cccnc2N)n1 [Compound 83, 2-(2-Aminopyridin-3-yl)-N-(2-methoxybenzyl)pyrimidin-4-amine]
1000 to 10000 | Nc1ncccc1-c1nccc(NCc2ccccc2OC(F)(F)F)n1 [Compound 84, 2-(2-Aminopyridin-3-yl)-N-[2-(trifluoromethoxy)benzyl]pyrimidin-4-amine]
1000 to 10000 | Nc1ncccc1-c1nccc(NCc2cccc(F)c2F)n1 [Compound 85, 2-(2-Aminopyridin-3-yl)-N-(2,3-difluorobenzyl)pyrimidin-4-amine]
100 to 1000 | Nc1ncccc1-c1nccc(NCc2ccccc2Cl)n1 [Compound 86, 2-(2-Aminopyridin-3-yl)-N-(2-chlorobenzyl)pyrimidin-4-amine]
1000 to 10000 | CS(=O)(=O)c1ccccc1CNc1ccnc(-c2cccnc2N)n1 [Compound 87, 2-(2-Aminopyridin-3-yl)-N-[2-(methylsulfonyl)benzyl]pyrimidin-4-amine]
> 10000 | CN(c1ncccc1CNc1ccnc(-c2cccnc2N)n1)S(C)(=O)=O [Compound 88, N-[3-({[2-(2-Aminopyridin-3-yl)pyrimidin-4-yl]amino}methyl)pyridin-2-yl]-N-methylmethane-sulfonamide]
1000 to 10000 | CS(=O)(=O)c1cccc(CNc2ccnc(-c3cccnc3N)n2)c1 [Compound 90, 2-(2-Aminopyridin-3-yl)-N-[3-(methylsulfonyl)benzyl]pyrimidin-4-amine]
1000 to 10000 | CN(C)c1ccccc1CNc1ccnc(-c2cccnc2N)n1 [Compound 91, 2-(2-Aminopyridin-3-yl)-N-[2-(dimethylamino)benzyl]pyrimidin-4-amine]
> 10000 | Cc1ccc(CNc2ccnc(-c3cccnc3N)n2)cc1 [Compound 92, 2-(2-Aminopyridin-3-yl)-N-(4-methylbenzyl)pyrimidin-4-amine]
